Measured values taken from ChEMBL document CHEMBL4842385, “Indirubin Derivatives as Dual Inhibitors Targeting Cyclin-Dependent Kinase and Histone Deacetylase for Treating Cancer” (J Med Chem, 2021).

Legend:
[1] = target: CDK6/cyclin D3 (Homo sapiens) (UniProt P30281+Q00534); conditions: dose 100.0 nM, time 10.0 min
[2] = target: CDK2/Cyclin A2 (Homo sapiens, UniProt P24941); assay: Inhibition of full length human CDK2 (1 to 298 end residues)/N-terminal GST-tagged CyclinA2 (1 to 432 residues) expressed in baculovirus expression system preincubated for 10 mins followed by substrate and ATP addition by mobility shift assay
[3] = target: Histone deacetylase (Homo sapiens) (UniProt Q13547+O15379+Q9UBN7+Q92769+Q9UQL6+Q8WUI4+Q9BY41+Q96DB2+P56524+Q9UKV0+Q969S8); conditions: HeLa, Nucleus, dose 1000.0 nM, time 1.0 hrs
[4] = target: T1, Histone deacetylase 11 (Homo sapiens, UniProt Q96DB2); assay: Inhibition of recombinant human HDAC11 measured after 30 mins by fluorescence microplate reader assay
T1 sequence (Q96DB2 whole entry): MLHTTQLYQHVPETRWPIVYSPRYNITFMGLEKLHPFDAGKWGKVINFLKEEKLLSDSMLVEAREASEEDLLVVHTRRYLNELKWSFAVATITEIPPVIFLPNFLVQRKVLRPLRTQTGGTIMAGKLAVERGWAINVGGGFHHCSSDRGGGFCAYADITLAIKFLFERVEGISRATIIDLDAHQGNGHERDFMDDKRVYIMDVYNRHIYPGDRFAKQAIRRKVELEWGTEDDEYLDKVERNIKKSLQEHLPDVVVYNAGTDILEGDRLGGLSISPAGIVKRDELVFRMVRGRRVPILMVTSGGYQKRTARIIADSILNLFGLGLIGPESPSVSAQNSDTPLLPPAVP

[5] = target: T2, Histone deacetylase 7 (Homo sapiens, UniProt Q8WUI4); assay: Inhibition of HDAC7 (unknown origin) measured after 30 mins by fluorescence microplate reader assay
T2 sequence (Q8WUI4 whole entry): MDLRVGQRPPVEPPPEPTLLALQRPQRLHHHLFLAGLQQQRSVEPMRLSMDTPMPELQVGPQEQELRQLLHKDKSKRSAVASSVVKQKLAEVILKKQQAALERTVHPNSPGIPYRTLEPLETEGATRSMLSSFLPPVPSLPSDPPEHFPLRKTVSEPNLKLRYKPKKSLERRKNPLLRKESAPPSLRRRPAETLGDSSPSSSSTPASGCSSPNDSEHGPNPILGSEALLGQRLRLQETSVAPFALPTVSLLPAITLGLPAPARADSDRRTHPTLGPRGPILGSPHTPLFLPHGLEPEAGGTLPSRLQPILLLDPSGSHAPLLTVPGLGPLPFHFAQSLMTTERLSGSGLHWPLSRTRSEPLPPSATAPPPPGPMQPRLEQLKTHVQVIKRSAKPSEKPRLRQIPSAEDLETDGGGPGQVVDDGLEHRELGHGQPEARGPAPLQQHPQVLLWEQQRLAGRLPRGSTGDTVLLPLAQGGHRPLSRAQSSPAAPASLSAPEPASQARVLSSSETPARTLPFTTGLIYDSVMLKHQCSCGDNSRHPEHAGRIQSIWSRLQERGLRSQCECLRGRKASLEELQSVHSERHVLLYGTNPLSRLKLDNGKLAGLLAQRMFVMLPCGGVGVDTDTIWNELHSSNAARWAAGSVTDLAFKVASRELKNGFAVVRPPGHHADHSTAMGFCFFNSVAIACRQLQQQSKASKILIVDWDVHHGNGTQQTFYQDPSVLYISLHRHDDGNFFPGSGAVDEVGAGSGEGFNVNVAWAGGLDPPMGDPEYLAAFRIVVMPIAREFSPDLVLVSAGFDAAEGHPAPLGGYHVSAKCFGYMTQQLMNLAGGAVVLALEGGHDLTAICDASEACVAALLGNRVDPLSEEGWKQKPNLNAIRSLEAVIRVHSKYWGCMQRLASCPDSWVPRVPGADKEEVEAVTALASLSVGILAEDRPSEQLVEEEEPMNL

[6] = target: Histone deacetylase 2 (Homo sapiens, UniProt Q92769); assay: Inhibition of HDAC2 (unknown origin) measured after 30 mins by fluorescence microplate reader assay
[7] = target: Histone deacetylase 1 (Homo sapiens, UniProt Q13547); assay: Inhibition of HDAC1 (unknown origin) measured after 30 mins by fluorescence microplate reader assay
[8] = target: T3, Protein deacetylase HDAC6 (Homo sapiens, UniProt Q9UBN7); assay: Inhibition of recombiant human HDAC6 using fluorogenic HDAC substrate 3 measured after 30 mins by fluorescence microplate reader assay
T3 sequence (Q9UBN7 whole entry): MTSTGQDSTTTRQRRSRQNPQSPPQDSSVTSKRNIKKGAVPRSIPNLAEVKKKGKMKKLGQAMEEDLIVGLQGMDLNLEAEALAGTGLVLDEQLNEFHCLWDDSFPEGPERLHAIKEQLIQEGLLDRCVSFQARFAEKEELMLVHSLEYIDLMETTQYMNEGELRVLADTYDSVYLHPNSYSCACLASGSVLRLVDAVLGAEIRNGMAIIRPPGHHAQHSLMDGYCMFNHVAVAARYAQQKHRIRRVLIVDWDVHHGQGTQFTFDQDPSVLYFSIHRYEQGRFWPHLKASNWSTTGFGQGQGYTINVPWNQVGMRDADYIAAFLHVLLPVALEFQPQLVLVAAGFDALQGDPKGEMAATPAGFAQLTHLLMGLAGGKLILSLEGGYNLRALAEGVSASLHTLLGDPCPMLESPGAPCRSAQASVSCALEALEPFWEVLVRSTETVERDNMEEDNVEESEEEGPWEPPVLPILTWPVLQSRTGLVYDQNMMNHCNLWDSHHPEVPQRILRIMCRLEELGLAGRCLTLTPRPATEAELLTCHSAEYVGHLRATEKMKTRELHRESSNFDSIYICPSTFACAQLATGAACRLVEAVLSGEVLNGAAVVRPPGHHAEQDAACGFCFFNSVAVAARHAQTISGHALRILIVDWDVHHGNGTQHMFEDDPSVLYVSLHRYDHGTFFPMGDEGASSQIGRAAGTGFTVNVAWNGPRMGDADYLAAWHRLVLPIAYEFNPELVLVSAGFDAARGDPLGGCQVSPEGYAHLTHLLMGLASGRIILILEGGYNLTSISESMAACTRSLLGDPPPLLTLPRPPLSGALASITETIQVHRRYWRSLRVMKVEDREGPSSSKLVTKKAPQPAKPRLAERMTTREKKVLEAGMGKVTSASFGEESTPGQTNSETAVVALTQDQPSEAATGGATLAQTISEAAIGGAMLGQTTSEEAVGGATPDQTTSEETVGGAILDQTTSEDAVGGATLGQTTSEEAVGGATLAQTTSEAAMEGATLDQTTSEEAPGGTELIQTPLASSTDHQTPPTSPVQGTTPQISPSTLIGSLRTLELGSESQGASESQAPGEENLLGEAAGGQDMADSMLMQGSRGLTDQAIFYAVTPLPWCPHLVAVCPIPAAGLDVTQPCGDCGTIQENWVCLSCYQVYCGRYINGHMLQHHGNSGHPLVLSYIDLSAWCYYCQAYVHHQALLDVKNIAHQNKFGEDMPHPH

Histone deacetylase 2, sequence (Q92769 whole entry): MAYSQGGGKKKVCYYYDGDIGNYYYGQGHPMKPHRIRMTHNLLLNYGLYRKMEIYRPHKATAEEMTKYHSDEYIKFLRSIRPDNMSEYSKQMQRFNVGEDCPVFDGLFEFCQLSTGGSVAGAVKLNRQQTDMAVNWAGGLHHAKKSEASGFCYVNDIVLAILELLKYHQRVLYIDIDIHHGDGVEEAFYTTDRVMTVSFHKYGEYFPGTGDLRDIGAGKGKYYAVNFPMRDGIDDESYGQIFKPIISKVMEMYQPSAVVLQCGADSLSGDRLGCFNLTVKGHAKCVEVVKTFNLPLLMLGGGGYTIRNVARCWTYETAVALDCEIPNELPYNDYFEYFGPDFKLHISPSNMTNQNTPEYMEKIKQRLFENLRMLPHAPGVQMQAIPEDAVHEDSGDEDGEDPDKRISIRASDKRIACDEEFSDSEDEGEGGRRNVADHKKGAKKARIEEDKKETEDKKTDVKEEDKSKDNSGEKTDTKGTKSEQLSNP
Histone deacetylase 1, sequence (Q13547 whole entry): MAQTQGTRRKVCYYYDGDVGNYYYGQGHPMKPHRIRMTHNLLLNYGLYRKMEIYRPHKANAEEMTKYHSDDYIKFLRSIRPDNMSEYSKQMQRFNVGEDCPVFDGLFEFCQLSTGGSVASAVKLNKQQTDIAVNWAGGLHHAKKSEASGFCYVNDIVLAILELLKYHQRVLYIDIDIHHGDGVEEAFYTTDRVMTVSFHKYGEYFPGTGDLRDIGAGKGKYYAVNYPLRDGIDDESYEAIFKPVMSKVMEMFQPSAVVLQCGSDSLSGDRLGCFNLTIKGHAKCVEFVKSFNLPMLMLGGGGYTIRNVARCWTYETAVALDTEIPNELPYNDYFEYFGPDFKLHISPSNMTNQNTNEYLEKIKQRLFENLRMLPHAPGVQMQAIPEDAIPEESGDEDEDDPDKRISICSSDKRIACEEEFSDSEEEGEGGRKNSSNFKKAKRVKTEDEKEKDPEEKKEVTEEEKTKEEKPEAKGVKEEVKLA

SMILES | inhibition [1] [%] | IC50 [2] [µM] | inhibition [3] [%] | IC50 [4] [µM] | IC50 [5] [µM] | IC50 [6] [µM] | IC50 [7] [µM] | IC50 [8] [µM]
O=C(CCCO/N=C1/C(=C2/C(=O)Nc3ccccc32)Nc2ccccc21)NO | 76.6 | 0.0609 | 51 | > 5 | > 5 | > 5 | > 5 | 0.129
O=C(O)CCCO/N=C1/C(=C2/C(=O)Nc3ccccc32)Nc2ccccc21 | 41.3 | 0.119 | 0.1 | > 5 | > 5 | > 5 | > 5 | > 5
C#CCN1C(=O)/C(=C2\Nc3ccccc3\C2=N/OCCCC(=O)NO)c2ccccc21 | 0.8 | > 1 | 23 | > 5 | > 5 | > 100 | > 100 | 1.87
